Laboratory results published in publication PMC10341573, “Design, Synthesis, and Biological Evaluation of Novel Quinazolin-4(3H)-One-Based Histone Deacetylase 6 (HDAC6) Inhibitors for Anticancer Activity” (International Journal of Molecular Sciences, 2023).
Like-named read-outs stand apart in the source and are kept apart here.

Legend:
HDAC6 = biological target: T1, HDAC6 (Homo sapiens, UniProt Q9UBN7); assay: HDAC enzyme activity assay (fluorogenic, Boc-Lys(acetyl)-AMC), HDAC6; type: biochemical; conditions: class IIb HDAC6; mean ± SD, triplicate
T1 construct: Full-length recombinant HDAC6 was purchased from BPS Bioscience; purchased BPS Bioscience
T1 sequence (Q9UBN7 1-1215): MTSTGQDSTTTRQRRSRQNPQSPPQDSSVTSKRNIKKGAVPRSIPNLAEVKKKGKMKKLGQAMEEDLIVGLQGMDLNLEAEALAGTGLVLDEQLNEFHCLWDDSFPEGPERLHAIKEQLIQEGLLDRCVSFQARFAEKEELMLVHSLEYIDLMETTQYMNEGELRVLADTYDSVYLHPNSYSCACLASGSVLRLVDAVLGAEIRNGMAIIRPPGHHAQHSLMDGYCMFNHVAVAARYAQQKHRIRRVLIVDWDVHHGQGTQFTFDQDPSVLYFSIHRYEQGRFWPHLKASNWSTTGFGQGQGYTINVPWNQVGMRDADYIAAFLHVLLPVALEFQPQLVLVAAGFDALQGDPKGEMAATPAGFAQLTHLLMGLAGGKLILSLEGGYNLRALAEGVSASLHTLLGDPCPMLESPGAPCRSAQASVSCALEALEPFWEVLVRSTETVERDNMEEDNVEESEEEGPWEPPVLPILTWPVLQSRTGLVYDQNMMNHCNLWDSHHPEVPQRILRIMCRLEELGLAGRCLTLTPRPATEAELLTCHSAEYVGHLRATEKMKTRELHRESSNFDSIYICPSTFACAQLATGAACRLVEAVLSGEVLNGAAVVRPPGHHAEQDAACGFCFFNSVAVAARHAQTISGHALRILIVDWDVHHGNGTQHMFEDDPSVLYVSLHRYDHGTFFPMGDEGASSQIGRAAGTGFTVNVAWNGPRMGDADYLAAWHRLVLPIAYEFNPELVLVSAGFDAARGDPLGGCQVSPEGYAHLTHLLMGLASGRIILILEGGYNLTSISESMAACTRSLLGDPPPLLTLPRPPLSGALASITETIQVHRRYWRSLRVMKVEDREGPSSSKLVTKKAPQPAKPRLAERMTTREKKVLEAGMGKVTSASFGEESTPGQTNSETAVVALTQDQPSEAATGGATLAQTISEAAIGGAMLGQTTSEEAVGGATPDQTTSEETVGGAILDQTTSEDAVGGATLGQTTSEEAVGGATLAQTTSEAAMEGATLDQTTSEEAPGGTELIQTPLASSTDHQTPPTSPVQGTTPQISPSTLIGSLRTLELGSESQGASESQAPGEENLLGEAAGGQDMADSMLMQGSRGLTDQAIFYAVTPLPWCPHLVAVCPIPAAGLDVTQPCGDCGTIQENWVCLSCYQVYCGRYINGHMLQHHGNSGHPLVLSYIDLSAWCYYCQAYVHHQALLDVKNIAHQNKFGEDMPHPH

HDAC8 = biological target: T2, HDAC8 (Homo sapiens, UniProt Q9BY41); assay: HDAC enzyme activity assay (fluorogenic, Boc-Lys(trifluoroacetyl)-AMC), HDAC8; type: biochemical; conditions: class I HDAC8; mean ± SD, triplicate
T2 construct: codon-optimized full-length HDAC8; made in house; host or cells: E. coli BL21(DE3), pET14b vector
T2 sequence (Q9BY41 1-377): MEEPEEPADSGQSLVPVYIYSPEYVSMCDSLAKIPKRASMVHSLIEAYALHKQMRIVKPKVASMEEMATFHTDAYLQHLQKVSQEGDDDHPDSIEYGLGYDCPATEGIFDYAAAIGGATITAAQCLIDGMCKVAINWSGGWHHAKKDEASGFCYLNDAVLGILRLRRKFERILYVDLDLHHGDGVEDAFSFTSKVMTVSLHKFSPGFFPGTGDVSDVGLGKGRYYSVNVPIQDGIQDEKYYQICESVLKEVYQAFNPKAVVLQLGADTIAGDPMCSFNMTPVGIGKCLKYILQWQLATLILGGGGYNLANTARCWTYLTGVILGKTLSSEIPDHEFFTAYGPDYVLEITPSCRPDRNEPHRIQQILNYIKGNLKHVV

MCF7 = assay: MTT cell proliferation assay, MCF7; type: cell-based, human; conditions: MTT, 72 h, mean ± SD, triplicate, read-out: IC50 ± SD MCF7
B16 = assay: MTT cell proliferation assay, B16; type: cell-based, murine; conditions: Mus musculus, B16; MTT, 72 h; mean ± SD, triplicate; read-out: IC50 ± SD B16
HEK 293 = assay: MTT cell proliferation assay, HEK 293; type: cell-based, human; conditions: Homo sapiens, HEK293; MTT, 72 h; mean ± SD, triplicate; read-out: IC50 ± SD HEK 293
MCF7 cells [1] = assay: Annexin V–FITC/PI apoptosis assay by flow cytometry; type: cell-based, human; conditions: MCF7, 0.1 and 1 μM, 24 h
Method: The efficacy of compound 5c to induce apoptosis was determined by annexin V–FITC/PI assay using flow cytometry. MCF7 cells were treated with two different concentrations of 5c as indicated, and the percentages of cells in the apoptotic and necrotic stage were analyzed, as depicted in Figure 8.
The apoptosis assay was performed using an annexin V–FITC Apoptosis detection kit (Sigma-Aldrich, APOAF) according to the manufacturer’s instructions. Cells were harvested, and 0.1 × 10^6 cells were seeded in a six-well cell culture plate and allowed to adhere followed by treatment with DMSO as the control and compound 5c at 0.1 μM and 1 μM concentrations for 24 h. The cells were trypsinized, pelleted down, and resuspended in the 1× buffer provided. The cells were stained using annexin V–FITC/PI and analyzed immediately using flow cytometry. Further analysis and plotting of graphs were conducted using Flowjo 7.6 [53].

MCF7 cells [2] = assay: Cell-cycle analysis by flow cytometry; type: cell-based, human
Method: Cell-cycle distribution analysis was carried out further to evaluate the effect of 5c on HDAC inhibition, as HDCA inhibitors are mainly known to target genes regulating the cell cycle. The 5c-treated MCF7 cells were subjected to cell-cycle analysis by flow cytometry.
Cell-cycle analysis was carried out using a cell-cycle analysis kit (Sigma-Aldrich, MAK344) according to the protocol given by the manufacturer. MCF7 cells were treated with DMSO or 0.1 μM and 1 μM concentrations of compound 5c and incubated for 48 h. Cells were then trypsinized and pelleted down. The pellets were washed with 1× cell-cycle buffer and fixed in ice-cold 70% ethanol for 1 h at 4 °C. The fixated cells were treated with ribonuclease A (RNase A) and stained with PI at room temperature for 30 min. Analysis was carried out using FlowJo 10.7.2..

- IC50 (HDAC6): 0.58 ± 0.05 µM
- IC50 (HDAC8): 2.3 ± 0.5 µM
- IC50 (MCF7; Homo sapiens, MCF7, 72 h): 13.7 µM
- IC50 (MCF7): 13.7 ± 0.83 µM
- IC50 (B16): 15 ± 3.34 µM
SMILES: Cc1ccc(-n2c(SCc3ccc(C(=O)NO)cc3)nc3ccccc3c2=O)cc1 [Compound 5c, N-hydroxy-4-(((4-oxo-3-(p-tolyl)-3,4-dihydroquinazolin-2-yl)thio)methyl)benzamide]
- IC50 (HEK 293): 35.1 ± 18.7 µM
- state of cells with increase in concentration (MCF7 cells [1]): late apoptosis and necrosis
- cell population in G2/M phase (MCF7 cells [2]; MCF7, 0.1 μM, 48 h): significant increase
- cell population in the G1 and S phases (MCF7 cells [2]; MCF7, 0.1 μM, 48 h): slight reduction
- effect on cells at 1 μM (MCF7 cells [2]; MCF7, 1 μM): necrosis and cell death
